{
  "source": "patent US9302999B2",
  "about": "“Substituted triazoles as herbicides” (E. I. DU PONT DE NEMOURS AND COMPANY, priority 2012, dated 2016)",
  "key": {"[1]": {"system": "Barnyardgrass", "assay": "Test C postemergence: barnyardgrass", "assay_type": "in vivo, Echinochloa crus-galli", "source_text": "At the same time, plants selected from these crop and weed species and also barley (winter barley, Hordeum vulgare), canarygrass (Phalaris minor), chickweed (common chickweed, Stellaria media) windgrass (Apera spica-venti) and deadnettle (henbit deadnettle, Lamium amplexicaule) were planted in pots containing Redi-Earth® planting medium (Scotts Company, 14111 Scottslawn Road, Marysville, Ohio 43041) comprising spaghnum peat moss, vermiculite, wetting agent and starter nutrients and treated with postemergence applications of test chemicals formulated in the same manner. Plants ranged in height from 2 to 18 cm (1- to 4-leaf stage) for postemergence treatments.\n(§1) Treated plants and controls were maintained in a greenhouse for 13 to 15 days, after which time all species were compared to controls and visually evaluated. Plant response ratings, summarized in Table C, are based on a scale of 0 to 100 where 0 is no effect and 100 is complete control. A dash (-) response means no test result."}, "[2]": {"system": "crabgrass, large (large crabgrass, Digitaria sanguinalis)", "assay": "Test F pre-/postemergence: crabgrass, large", "assay_type": "in vivo", "conditions": "Preemergence", "source_text": "Seeds of plant species selected from corn (Zea mays), soybean (Glycine max), velvetleaf (Abutilon theophrasti), lambsquarters (Chenopodium album), poinsettia, wild (wild poinsettia, Euphorbia heterophylla), pigweed, palmer (palmer pigweed, Amaranthus palmeri), waterhemp (common waterhemp, Amaranthus rudis), surinam grass (Brachiaria decumbens), crabgrass, Brazil (Brazilian crabgrass, Digitaria horizontalis), panicum, fall (fall panicum Panicum dichotomiflorum), crabgrass, large (large crabgrass, Digitaria sanguinalis), foxtail, giant (giant foxtail, Setaria faberii), foxtail, green (green foxtail Setaria viridis), goosegrass (Eleusine indica), ragweed (common ragweed, Ambrosia elatior), barnyardgrass (Echinochloa crus-galli), sandbur (southern sandbur, Cenchrus echinatus), arrowleaf sida (Sida rhombifolia), ryegrass, Italian (Italian ryegrass, Lolium multiflorum), dayflower, VA (Virginia (VA) dayflower, Commelina virginica), field bindweed (Convolvulus arvensis), cocklebur (common cocklebur, Xanthium strumarium), morningglory (Ipomoea coccinea), nightshade (eastern black nightshade, Solanum ptycanthum), kochia (Kochia scoparia), nutsedge, yellow (yellow nutsedge, Cyperus esculentus), johnsongrass (Sorghum halepense), smartweed (ladysthumb smartweed, Polygonum persicaria), and beggarticks (hairy beggarticks, Bidens pilosa), were planted into a silt loam soil and treated preemergence with test chemicals formulated in a non-phytotoxic solvent mixture which included a surfactant. At the same time, plants selected from these crop and weed species and also pigweed (Amaranthus retroflexus), waterhemp_RES1 (ALS/Triazine resistant common waterhemp, Amaranthus rudis) and waterhemp_RES2 (ALS/HPPD resistant common waterhemp, Amaranthus rudis) were planted in pots containing a planting medium comprising spaghnum peat moss, vermiculite, wetting agent and starter nutrients treated with postemergence applications of some of the test chemicals formulated in the same manner. Plants ranged in height from 2 to 18 cm for postemergence treatments (1- to 4-leaf stage).\nas §1, with “14” for “13”, “21” for “15”, “E,” for “C,”"}, "[3]": {"system": "wheat, winter (winter wheat, Triticum aestivum)", "assay": "Test D pre-/postemergence: wheat, winter", "assay_type": "in vivo", "in_short": "(§2)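 Pre- and postemergence herbicide screen. Soil for pre: silt loam; post medium: peat moss, vermiculite, wetting agent, starter nutrients. Plant stage at post: 1- to 4-leaf. Readout: visual % control, 14–21 days.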"}, "[4]": {"system": "bromegrass, downy (downy bromegrass, Bromus tectorum)", "assay": "Test D pre-/postemergence: bromegrass, downy", "assay_type": "in vivo", "in_short": "as §2"}, "[5]": {"system": "surinam grass (Brachiaria decumbens)", "assay": "Test C pre-/postemergence: surinam grass", "assay_type": "in vivo", "in_short": "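Preemergence on seeds in loam/sand, postemergence on 2–18 cm (1–4-leaf) plants in peat-based medium; compounds in non-phytotoxic solvent with surfactant. After 13–15 days in greenhouse, visual rating versus controls, 0 (no effect) to 100 (complete control).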"}, "[6]": {"conditions": "31 g ai/ha, scale 0 to 100 (0 no effect, 100 complete control)"}, "[7]": {"conditions": "62 g ai/ha, scale 0 to 100 (0 no effect, 100 complete control)"}, "[8]": {"conditions": "16 g ai/ha, scale 0 to 100, 0 no effect, 100 complete control"}, "[9]": {"conditions": "31 g ai/ha, scale 0 to 100, 0 no effect, 100 complete control"}, "[10]": {"conditions": "Postemergence, 31 g ai/ha, scale 0 to 100 (0 no effect, 100 complete control)"}, "[11]": {"conditions": "Postemergence, 62 g ai/ha, scale 0 to 100 (0 no effect, 100 complete control)"}, "[12]": {"conditions": "Postemergence, 125 g ai/ha, scale 0 to 100, 0 no effect, 100 complete control"}, "[13]": {"conditions": "Postemergence, 16 g ai/ha, scale 0 to 100"}, "[14]": {"conditions": "Preemergence, 16 g ai/ha, scale 0 to 100, 0 no effect, 100 complete control"}, "[15]": {"conditions": "Preemergence, 31 g ai/ha, scale 0 to 100, 0 no effect, 100 complete control"}, "[16]": {"conditions": "Preemergence, 62 g ai/ha, scale 0 to 100"}, "[17]": {"conditions": "Preemergence, 125 g ai/ha, scale 0 to 100"}},
  "data": [
    {"smiles": "CCCc1nn(-c2ccc(C(F)(F)F)cc2)nc1Oc1ccnc(C(F)(F)F)c1", "note": "[Compound 170]", "values": [
      {"measurement": "Plant response rating, Barnyardgrass", "setting": "[1]; [6]", "result": 20},
      {"measurement": "Plant response rating, Barnyardgrass", "setting": "[1]; [7]", "result": 55},
      {"measurement": "Plant response rating, Barnyardgrass", "setting": "[1]; 250 g ai/ha, scale 0 to 100", "result": 95}
    ]},
    {"smiles": "CCc1nn(-c2ccc(F)c(F)c2)nc1Oc1ccnc(C(F)(F)F)c1", "note": "[Compound 171]", "values": [
      {"measurement": "Plant response rating, Barnyardgrass", "setting": "[1]; [6]", "result": 10},
      {"measurement": "Plant response rating, Barnyardgrass", "setting": "[1]; [7]", "result": 15},
      {"measurement": "Plant response rating, Barnyardgrass", "setting": "[1]; 250 g ai/ha, scale 0 to 100", "result": 75},
      {"measurement": "Plant response rating, Crabgrass, Large", "setting": "[2]; [8]", "result": 75},
      {"measurement": "Plant response rating, Crabgrass, Large", "setting": "[2]; [9]", "result": 98},
      {"measurement": "Plant response rating, Crabgrass, Large", "setting": "[2]; 62 g ai/ha, scale 0 to 100", "result": 98},
      {"measurement": "Plant response rating, Crabgrass, Large", "setting": "[2]; 125 g ai/ha, scale 0 to 100", "result": 100},
      {"measurement": "Plant response rating, Crabgrass, Large", "setting": "[2]; 250 g ai/ha, scale 0 to 100", "result": 100}
    ]},
    {"smiles": "CCCc1nn(-c2ccc(F)c(F)c2)nc1Oc1ccnc(C(F)(F)F)c1", "note": "[Compound 172]", "values": [
      {"measurement": "Plant response rating, Barnyardgrass", "setting": "[1]; [6]", "result": 40},
      {"measurement": "Plant response rating, Barnyardgrass", "setting": "[1]; [7]", "result": 45},
      {"measurement": "Plant response rating, Barnyardgrass", "setting": "[1]; 250 g ai/ha, scale 0 to 100", "result": 90},
      {"measurement": "Plant response rating, Crabgrass, Large", "setting": "[2]; [9]", "result": 100},
      {"measurement": "Plant response rating, Crabgrass, Large", "setting": "[2]; 125 g ai/ha, scale 0 to 100", "result": 100},
      {"measurement": "Plant response rating, Crabgrass, Large", "setting": "[2]; 250 g ai/ha, scale 0 to 100", "result": 100}
    ]},
    {"smiles": "CCCc1nn(-c2ccc(F)cc2F)nc1Oc1ccnc(C(F)(F)F)c1", "note": "[Compound 179]", "values": [
      {"measurement": "Plant response rating, Barnyardgrass", "setting": "[1]; [6]", "result": 40},
      {"measurement": "Plant response rating, Barnyardgrass", "setting": "[1]; [7]", "result": 45},
      {"measurement": "Plant response rating, Barnyardgrass", "setting": "[1]; 250 g ai/ha, scale 0 to 100", "result": 75}
    ]},
    {"smiles": "CCc1nn(-c2ccc(C(F)(F)F)c(F)c2)nc1Oc1ccnc(C(F)(F)F)c1", "note": "[Compound 183]", "values": [
      {"measurement": "Plant response rating, Barnyardgrass", "setting": "[1]; [6]", "result": 15},
      {"measurement": "Plant response rating, Barnyardgrass", "setting": "[1]; [7]", "result": 35},
      {"measurement": "Plant response rating, Barnyardgrass", "setting": "[1]; 250 g ai/ha, scale 0 to 100", "result": 85}
    ]},
    {"smiles": "CCOc1nn(-c2ccc(Cl)cc2)nc1Cc1ccnc(C(F)(F)F)c1", "note": "[Compound 188]", "values": [
      {"measurement": "Plant response rating, Barnyardgrass", "setting": "[1]; [6]", "result": 75},
      {"measurement": "Plant response rating, Barnyardgrass", "setting": "[1]; [7]", "result": 95},
      {"measurement": "Plant response rating, Barnyardgrass", "setting": "[1]; 250 g ai/ha, scale 0 to 100", "result": 100}
    ]},
    {"smiles": "CCOc1nn(-c2ccc(F)cc2)nc1Cc1ccnc(C(F)(F)F)c1", "note": "[Compound 196, 4-[[5-ethoxy-2-(4-fluorophenyl)-2H-1,2,3-triazol-4-yl]methyl]-2-(trifluoromethyl)pyridine]", "values": [
      {"measurement": "Plant response rating: Wheat, Winter", "setting": "[3]; [10]", "result": 20},
      {"measurement": "Plant response rating: Wheat, Winter", "setting": "[3]; [11]", "result": 25},
      {"measurement": "Plant response rating: Wheat, Winter", "setting": "[3]; [12]", "result": 35},
      {"measurement": "Plant response rating, Wheat, Winter", "setting": "[3]; [13]", "result": 15},
      {"measurement": "Plant response rating, Wheat, Winter", "setting": "[3]; [14]", "result": 5},
      {"measurement": "Plant response rating, Wheat, Winter", "setting": "[3]; [15]", "result": 5},
      {"measurement": "Plant response rating, Wheat, Winter", "setting": "[3]; [16]", "result": 10},
      {"measurement": "Plant response rating, Wheat, Winter", "setting": "[3]; [17]", "result": 15},
      {"measurement": "Plant response rating, Crabgrass, Large", "setting": "[2]; [8]", "result": 75},
      {"measurement": "Plant response rating, Crabgrass, Large", "setting": "[2]; [9]", "result": 100},
      {"measurement": "Plant response rating, Crabgrass, Large", "setting": "[2]; 62 g ai/ha, scale 0 to 100", "result": 100},
      {"measurement": "Plant response rating, Crabgrass, Large", "setting": "[2]; 125 g ai/ha, scale 0 to 100", "result": 100},
      {"measurement": "Plant response rating: Bromegrass, Downy", "setting": "[4]; [10]", "result": 35},
      {"measurement": "Plant response rating: Bromegrass, Downy", "setting": "[4]; [11]", "result": 50},
      {"measurement": "Plant response rating: Bromegrass, Downy", "setting": "[4]; [12]", "result": 65},
      {"measurement": "Plant response rating, Bromegrass, Downy", "setting": "[4]; [13]", "result": 15},
      {"measurement": "Plant response rating, Bromegrass, Downy", "setting": "[4]; [14]", "result": 5},
      {"measurement": "Plant response rating, Bromegrass, Downy", "setting": "[4]; [15]", "result": 15},
      {"measurement": "Plant response rating, Bromegrass, Downy", "setting": "[4]; [16]", "result": 70},
      {"measurement": "Plant response rating, Bromegrass, Downy", "setting": "[4]; [17]", "result": 90},
      {"measurement": "Plant response rating, Surinam Grass", "setting": "[5]; [10]", "result": 35},
      {"measurement": "Plant response rating, Surinam Grass", "setting": "[5]; [11]", "result": 70},
      {"measurement": "Plant response rating, Surinam Grass", "setting": "[5]; [12]", "result": 70},
      {"measurement": "Plant response rating, Surinam Grass", "setting": "[5]; Postemergence, 250 g ai/ha, scale 0 to 100 (0 no effect, 100 complete control)", "result": 75},
      {"measurement": "Plant response rating, Surinam Grass", "setting": "[5]; Preemergence, 31 g ai/ha, scale 0 (no effect) to 100 (complete control)", "result": 90},
      {"measurement": "Plant response rating, Surinam Grass", "setting": "[5]; Preemergence, 62 g ai/ha, scale 0 to 100, 0 no effect, 100 complete control", "result": 98},
      {"measurement": "Plant response rating, Surinam Grass", "setting": "[5]; Preemergence, 125 g ai/ha, scale 0 to 100, 0 no effect, 100 complete control", "result": 100},
      {"measurement": "Plant response rating, Surinam Grass", "setting": "[5]; Preemergence, 250 g ai/ha, scale 0 to 100, 0 no effect, 100 complete control", "result": 100}
    ]}
  ]
}
